Measured values published in patent US20230149358A1, “COMBINATION CANCER THERAPY WITH PENTAAZA MACROCYCLIC RING COMPLEX AND HORMONE THERAPY AGENT” (Galera Labs, LLC, priority 2020, published 2023).
“Also recorded” adds a separate entry of the source.

Key:
MCF7-HTR cells = experiment: Clonogenic cell survival, hydroxy-Tam-resistant MCF7-HTR cells; format: cell-based, human; conditions: 5 μM GC4419 for 5 days
Description: Clonogenic cell survival assay. For the clonogenic survival analysis, exponentially growing cells were replated using appropriate dilutions, and clonogenic survival was evaluated after 14 days in regular growth medium. Cells were stained with crystal violet, and colonies of >50 cells were counted and utilized to calculate clonogenic survival^46.
To test parameters indicative of oxidative stress, a clonogenic assay with hydroxy-Tam and antioxidant treatments was performed. Cells were plated at a density of 50,000 cells per 60-mm dish and treated with 1 μM hydroxy-Tam (Sigma) and 5 μM GC4419 (Galera Therapeutics) for a total of 120 h. This protocol was repeated with a fresh medium change every 24 h for 5 days. On day 6, the cells were trypsinized, counted, and replated in control medium using appropriate dilutions, and clonogenic survival was evaluated.

T47D-HTR cells = experiment: Ki-67 staining, T47D-HTR cells; format: cell-based, human; conditions: 5 μM GC4419 and/or 1 μM 4-hydroxy-Tam for 5 days
Excerpt: With respect to FIG. 16a, the data from FIG. 7i, where MCF7-HTR cells were stained for Ki-67, as well as DAPI, were counted with ImageJ and quantified for average Ki-67 intensity as shown in the bar graph. With respect to FIGS. 16b and 16c, T47D and T47D-HTR cells were stained for Ki-67 as well as DAPI, and particles in the nucleus were counted with ImageJ and quantified for average Ki-67 intensity as shown in the bar graph. In FIGS. 16d and 16e, MCF7-HTR cells, and in FIGS. 16f and 16g, T47D-HTR cells, were treated with 5 μM GC4419 and/or 1 μM 4-hydroxy-Tam for 5 days, and then stained for Ki-67 as well as DAPI. Quantifications of average Ki-67 intensity are shown in the bar graphs. All experiments were done in triplicate. Error bars represent ±1 SEM. ***p<0.001. Representative images are shown.
Cells seeded on glass coverslips were fixed in 4% paraformaldehyde and then blocked with 1% BSA and 10% normal goat serum in 1×PBS. Cells were incubated with anti-Ki-67 (c-bioscience) antibody in 1×PBS followed by incubation with goat anti-rabbit IgG conjugated with Alexa Fluor 647 (Invitrogen) in 1×PBS with 5% goat serum. Cells were washed in 1×PBS, mounted, and imaged with a fluorescence microscope. Fluorescence images were captured using a laser scanning confocal microscope (Nikon A1R). The paired images in all the figures were collected at the same gain and offset settings. […]

LNCaP-ENZR cells = experiment: Clonogenic cell survival, LNCaP-ENZR cells; format: cell-based; conditions: ENZ with GC4419 (20 μM) for 5 days
Description: (§1) In FIG. 21(a), clonogenic cell survival experiments were performed in LNCaP-ENZR (left two bars) and LNCaP-MnSOD^K68Q (right two bars) treated with ENZ, with or without GC4419 (20 μM) for 5 days. […] Tumor volumes were measured three times a week for 46 days. For each group n=10. Error bars ±1 SEM. All experiments done in triplicate. **p<0.01.
To address whether there is a link between MnSOD-K68-Ac and ENZR, two ENZ sensitive prostate tumor cell lines were used, LNCaP or 22RV1, which were cultured in 5 μM of ENZ for 3 weeks and then continuously grown at 10 μM, using an established method^91 to select for ENZR cells. […] Since K68-Ac alters the surface charge at the MnSOD tetramerization interface, we assessed the oligomerization state of MnSOD in LNCaP-ENZR cells.

[1] = tested on: LNCaP-MnSOD^K68Q xenografts; experiment: LNCaP-MnSOD^K68Q hindlimb xenograft growth in nude mice; format: in vivo; conditions: male nude mice; GC4419 10 mg/kg once per week, ENZ 25 mg/kg/day; 46 days
Description: as §1
Thus, it was surmised that restoring SOD activity, using the pentaaza macrocyclic ring complex GC4419, an agent that chemically detoxifies superoxide, would reverse/convert the ENZR to a sensitive phenotype. […] The dose and pharmacokinetics for GC4419 is based on data for murine models^92-93.

MCF7-Cispl-R cells [2] = experiment: Cell ROS levels, MCF7-Cispl-R cells; format: cell-based, human; conditions: GC4419 exposure; data not shown
Description: FIGS. 27a-27c are an image and graphs showing that MnSOD-Ac-K68/HIF2α dysregulation directs PanR (resistance to cancer therapeutics). […] In FIG. 27b, ROS was measured in MCF7-Cispl-R cells, compared with MCF7 cells, using an Amplex Red assay. In FIG. 27c, MCF7 and MCF7-MnSOD^K68Q cells were measured by clonogenic cell survival assays, without and with Cispl exposure, and infected with scrambled (C) or HIF2α shRNA. All experiments were done in triplicate. Error bars are ±1 SEM. * p<0.05.
(§2) Aberrant HIF2α levels promote lineage plasticity, leading to chemoresistance and metastasis. […] Thus, MCF7 cells were selected for cisplatin resistance (Cispl-R) by 3 months of exposure to 5 μM Cispl.

MCF7-Cispl-R cells [3] = experiment: SOX2 and OCT4 levels, MCF7-Cispl-R cells; format: cell-based, human; conditions: MCF7-Cispl-R treated with GC4419; data not shown
Description: as §2

[4] = tested on: Sirt3^−/−-MT-SIRT3^WT tumor cells; experiment: Mammary allograft tumor growth (bioluminescence), Sirt3^−/−-MT-SIRT3^WT; format: in vivo; conditions: Sirt3^−/−-MT-SIRT3^WT allografts, nude mice, IP
Description: Mice were subsequently injected with luciferin potassium (120 mg/kg) every week and signal intensity will be quantified. Error bars represent one SD from the mean.
These cell lines were subsequently infected with and selected to express either a SIRT3 wild-type (Sirt3^−/−-MT-SIRT3^WT) or deacetylation null (Sirt3^−/−-MT-SIRT3^DN) gene and a lenti-luciferase to assess tumor growth by bioluminescence. Allograft tumor mice were split into four groups: (1) control, untreated Sirt3^−/−-MT-SIRT3^DN; (2) GC4419 treated Sirt3^−/−-MT-SIRT3^DN; (3) control, untreated Sirt3^−/−-MT-SIRT3^WT; and (4) GC4419 treated Sirt3^−/−-MT-SIRT3^WT.

mice lacking Sirt3 = conditions: IP 2 mg/kg, 30 minutes before IR; cited from earlier work

SMILES: [Cl][Mn][Cl].c1cc2nc(c1)CN[C@H]1CCCC[C@@H]1NCCN[C@H]1CCCC[C@@H]1NC2 [GC4419]
- sensitivity to hydroxy-Tam (clonogenic cell survival) (MCF7-HTR cells): became sensitive to hydroxy-Tam
- Ki-67 staining (T47D-HTR cells): exhibited decreased Ki-67 IHC staining; also recorded: decreased Ki-67 levels
- tumor cell survival in the presence of ENZ (clonogenic) (LNCaP-ENZR cells): significant decrease in tumor cell survival in the presence of ENZ; also recorded: reversed the ENZR
- xenograft growth (tumor volume) [1]: significant inhibition of xenograft growth
- cell ROS levels (MCF7-Cispl-R cells [2]): decreased cell ROS levels
- SOX2 and OCT4 levels (MCF7-Cispl-R cells [3]): decreased SOX2 and OCT4 levels
- allograft tumor growth [4]: no change in tumor growth was observed
- liver damage (mice lacking Sirt3): attenuated liver damage
